Measured values taken from patent publication US12428433B2, “Fluorine-containing heterocyclic derivatives with macrocyclic structure and use thereof” (ScinnoHub Pharmaceutical Co., Ltd, priority 2019, dated 2025).

System: MDR1 (P-gp)
Test: Bidirectional permeability study on MDCK-MDR1 cell line
Format: in vitro ADME
Details: dog; for efflux ratio at 2 h, 1 μM: MDCK-MDR1, pH 7.4, read-out: Excretion ratio = Papp (B-A)/Papp (A-B); for Papp A→B at 2 h, 1 μM / Papp B→A at 2 h, 1 μM: pH 7.4, MDCK-MDR1, 1 μM
Procedure: MDCK-MDR1 cells were purchased from Netherlands Cancer Institute, and cells between 10 and 20 generations were used.
1) Before cell inoculation, 50 μL of cell medium was added into each well of an upper chamber of Transwell, and […] of cell medium was added into a lower culture plate. The culture plate was placed in an incubator at 37° C. under 5% CO2 for incubation for 1 hour, and then could be used for inoculating cells.
2) The MDCK-MDR1 cells were resuspended with the medium, so that a final concentration was 1.56×10^6 cells/mL. A cell suspension was added into an upper chamber of a 96-well Transwell culture plate according to 50 μL per well. The incubator was set at 37° C. under 5% CO2, and was ensured to have a relative humidity of 95% for culturing for 4 days to 8 days. The medium was replaced 48 hours after inoculation, the culturing lasted for 4 days to 8 days, and the medium was replaced every other day.
4) Calculation of resistance value: measured resistance value (ohms)×film area (cm^2)=TEER value (ohm cm^2), and if the TEER value was less than 42 ohms cm^2, the well could not be used for a penetration experiment.
1) The MDCK-MDR1 Transwell culture plate was taken from the incubator. The cell monolayer film was moistened and washed twice with a preheated HBSS (25 mM HEPES, pH 7.4) buffer, and incubated at 37° C. for 30 minutes.
2) A stock solution of the control compound and the test compound was diluted in DMSO to obtain a 200 μM solution, and then diluted with HBSS (10 mM HEPES, pH 7.4) to obtain a 1 μM working solution. A final concentration of DMSO in the incubation system was 0.5%.
3) A transfer rate of the compound from a top end to a base end was measured. 125 μL of working solution was added into the upper chamber (top end), then 50 μL of sample solution was immediately transferred from a lower chamber (base end) to a 96-well plate filled with 200 μL of acetonitrile containing an internal standard as a 0-minute administration sample (A-B) for detection, and 235 μL of HBSS (25 mM HEPES, pH 7.4) buffer was added into the lower chamber. The internal standard contained 100 nM alprazolam, 200 nM caffeine and 100 nM tolbutamide. The 50 μL of sample solution transferred above was vortexed at a speed of 1,000 rpm for 10 minutes.
4) A transfer rate of the compound from the base end to the top end was measured. 285 μL of working solution was added into the lower chamber (base end), then 50 μL of sample solution was immediately transferred from the upper chamber (top end) to a 96-well plate filled with 200 μL of acetonitrile containing an internal standard as a 0-minute administration sample (B-A) for detection, and 75 μL of HB SS (25 mM HEPES, pH 7.4) buffer was added into the upper chamber. The internal standard contained 100 nM alprazolam, 200 nM caffeine and 100 nM tolbutamide. The 50 μL of sample solution transferred above was vortexed at a speed of 1,000 rpm for 10 minutes. The experiment from the top end to the base end and the experiment from the base end to the top end should be carried out simultaneously.
5) After adding the buffers into the lower chamber and the upper chamber respectively, the MDCK-MDR1 Transwell culture plate was incubated at 37° C. for 2 hours.
6) After finishing incubating, 50 μL of sample solutions were respectively taken from an administration side (the upper chamber: Ap→Bl flux, the lower chamber: Bl→Ap) and a receiving side (the lower chamber: Ap→Bl flux, the upper chamber Bl→Ap) and added into new 96-well plates, and 4 times volume of […] containing the internal standard was added into the well plates. The internal standard substance contained 100 nM alprazolam, 200 nM caffeine and 100 nM tolbutamide. The solution was vortexed for 10 minutes, and then centrifuged at 3,220 g for 40 minutes. 100 μL of supernatant was sucked and mixed with equal volume of ultrapure water, and then subjected to LC-MS/MS analysis. […]

Row | efflux ratio at 2 h, 1 μM | Papp A→B at 2 h, 1 μM [×10⁻⁶ cm/s] | Papp B→A at 2 h, 1 μM [×10⁻⁶ cm/s] | SMILES
1 | 4.67 | 11.1 | 51.9 | C[C@H]1Nc2nc3c(cnn3cc2F)C(=O)N[C@H]2C[C@H](C2)Oc2ncc(F)cc21 [Example 3, (3^1S,3^3S,6^3E,6^4E,8R)-1^5,6^6-difluoro-8-methyl-2-oxo-4,7-diaza-6(3,5)-pyrazolo[1,5-a]pyrimidine-1(2,3)-pyridine-3(1,3)-cyclobutylcyclooctane-5-one]
2 | 19.4 | 3.31 | 64.4 | C[C@H]1Nc2ccn3ncc(c3n2)C(=O)N[C@H]2C[C@H](C2)Oc2ncc(F)cc21 [Positive control 2, reference compound]
